The record followed here is US20240425490A1, “SULFAMIDE RIBONUCLEOTIDE REDUCTASE (RNR) INHIBITORS AND USES THEREOF” (Boundless Bio, Inc., priority 2021, published 2024).

Bounds are passed on as bounds.

The target in this assay is T1, RNR (RNR1:RNR2 1:1) (Homo sapiens, UniProt P23921).
T1 sequence (P23921 1-792): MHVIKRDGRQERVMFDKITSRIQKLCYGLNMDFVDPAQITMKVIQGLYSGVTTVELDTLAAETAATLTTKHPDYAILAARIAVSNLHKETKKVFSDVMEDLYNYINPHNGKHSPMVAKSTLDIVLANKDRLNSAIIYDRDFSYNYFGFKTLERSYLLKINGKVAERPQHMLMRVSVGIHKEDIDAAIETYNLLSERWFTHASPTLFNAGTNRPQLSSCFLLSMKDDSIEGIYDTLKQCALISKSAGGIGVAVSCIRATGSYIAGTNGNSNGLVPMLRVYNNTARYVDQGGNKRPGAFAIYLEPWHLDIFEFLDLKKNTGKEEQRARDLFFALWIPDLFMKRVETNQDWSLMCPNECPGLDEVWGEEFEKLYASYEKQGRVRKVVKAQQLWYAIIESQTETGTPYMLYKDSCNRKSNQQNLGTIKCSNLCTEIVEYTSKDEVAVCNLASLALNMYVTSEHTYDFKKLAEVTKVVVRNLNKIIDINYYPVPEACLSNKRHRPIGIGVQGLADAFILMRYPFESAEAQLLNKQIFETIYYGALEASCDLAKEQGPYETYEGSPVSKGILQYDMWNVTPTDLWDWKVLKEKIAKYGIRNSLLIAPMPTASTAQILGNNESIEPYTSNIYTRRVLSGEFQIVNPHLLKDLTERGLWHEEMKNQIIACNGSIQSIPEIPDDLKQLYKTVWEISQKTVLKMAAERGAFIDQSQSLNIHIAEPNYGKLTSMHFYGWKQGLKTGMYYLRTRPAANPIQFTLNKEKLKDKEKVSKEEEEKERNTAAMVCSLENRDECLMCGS
Put plainly: RNR enzyme activity, rapid-fire mass spectrometry (RFMS) assay. The format is biochemical. The following applies: RNR 50 nM, CDP 5 μM, ATP 1 mM, 37° C., 45 min, compounds screened up to 50 μM, read-out: RF/MS IC50. In short, it runs like this:
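Human RNR1:RNR2 (1:1, 50 nM) pre-incubated 15 min at room temperature with compound, then reacted with 5 μM CDP and 1 mM ATP, no NADPH, for 45 min at 37 °C. Stopped with 6% HCOOH; turnover read by rapid-fire mass spectrometry; Triapine and hydroxyurea as reference compounds.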
For `Cc1ccc(F)c([C@H](C)[C@H](NS(=O)(=O)N2CCC3(CCCCC3)CC2)c2n[nH]c(=O)o2)c1C` [Example 88, N-((1S,2S)-2-(6-fluoro-2,3-dimethylphenyl)-1-(5-oxo-4,5-dihydro-1,3,4-oxadiazol-2-yl)propyl)-3-azaspiro[5.5]undecane-3-sulfonamide], the IC50 lay within 1 to 10 µM.

Regarding `Cc1ccc(F)c(C(C)[C@H](NS(=O)(=O)N2CCC(O)(C(F)(F)F)CC2)c2n[nH]c(=O)o2)c1C` (stereo partly drawn) [Example 89, N-((1S)-2-(6-fluoro-2,3-dimethylphenyl)-1-(5-oxo-4,5-dihydro-1,3,4-oxadiazol-2-yl)propyl)-4-hydroxy-4-(trifluoromethyl)piperidine-1-sulfonamide], the IC50 is 0.1 to 1 µM.

Take `Cc1ccc(F)c(C(C)[C@H](NS(=O)(=O)N2CCC(c3ncc[nH]3)CC2)c2n[nH]c(=O)o2)c1C` (stereo partly drawn) [Example 90, N-((1S)-2-(6-fluoro-2,3-dimethylphenyl)-1-(5-oxo-4,5-dihydro-1,3,4-oxadiazol-2-yl)propyl)-4-(1H-imidazol-2-yl)piperidine-1-sulfonamide]: the IC50 lay in the range of 1 to 10 µM.

Turning to `Cc1ccc(F)c(C(C)[C@H](NS(=O)(=O)N2CCC3(CCOCC3)CC2)c2n[nH]c(=O)o2)c1C` (stereo partly drawn) [Example 91, N-((1S)-2-(6-fluoro-2,3-dimethylphenyl)-1-(5-oxo-4,5-dihydro-1,3,4-oxadiazol-2-yl)propyl)-3-oxa-9-azaspiro[5.5]undecane-9-sulfonamide], the IC50 was in the range of 0.1 to 1 µM.

For the compound `COC(=O)C1CC12CCN(S(=O)(=O)N[C@H](c1n[nH]c(=O)o1)C(C)c1c(F)ccc(C)c1C)CC2` (stereo partly drawn) [Example 92, methyl 6-(N-((1S)-2-(6-fluoro-2,3-dimethylphenyl)-1-(5-oxo-4,5-dihydro-1,3,4-oxadiazol-2-yl)propyl)sulfamoyl)-6-azaspiro[2.5]octane-1-carboxylate], the IC50 lay within 0.1 to 1 µM.

Regarding `Cc1ccc(F)c(C(C)[C@H](NS(=O)(=O)N2CCC3(CCC(=O)N3C)CC2)c2n[nH]c(=O)o2)c1C` (stereo partly drawn) [Example 93, N-((1S)-2-(6-fluoro-2,3-dimethylphenyl)-1-(5-oxo-4,5-dihydro-1,3,4-oxadiazol-2-yl)propyl)-1-methyl-2-oxo-1,8-diazaspiro[4.5]decane-8-sulfonamide], the IC50 lay within 1 to 10 µM.

On to `Cc1ccc(F)c([C@@H](C)[C@H](NS(=O)(=O)N2CCC3(CC2)CC(F)(F)C3)c2n[nH]c(=O)o2)c1C` [Example 94, 2,2-difluoro-N-((1S,2R)-2-(6-fluoro-2,3-dimethylphenyl)-1-(5-oxo-4,5-dihydro-1,3,4-oxadiazol-2-yl)propyl)-7-azaspiro[3.5]nonane-7-sulfonamide], for which the IC50 lay within 0.1 to 1 µM.

As to `Cc1ccc(F)c([C@H](C)[C@H](NS(=O)(=O)N2CCC3(CC2)CC(F)(F)C3)c2n[nH]c(=O)o2)c1C` [Example 95, 2,2-difluoro-N-((1S,2S)-2-(6-fluoro-2,3-dimethylphenyl)-1-(5-oxo-4,5-dihydro-1,3,4-oxadiazol-2-yl)propyl)-7-azaspiro[3.5]nonane-7-sulfonamide], the IC50 fell in the range of 1 to 10 µM.

Turning to `Cc1ccc(F)c(C(C)[C@H](NS(=O)(=O)N2CCC(n3cccn3)CC2)c2n[nH]c(=O)o2)c1C` (stereo partly drawn) [Example 96, N-((1S)-2-(6-fluoro-2,3-dimethylphenyl)-1-(5-oxo-4,5-dihydro-1,3,4-oxadiazol-2-yl)propyl)-4-(1H-pyrazol-1-yl)piperidine-1-sulfonamide], the IC50 fell in the range of 1 to 10 µM.

As for `Cc1ccc(F)c([C@@H](C)[C@H](NS(=O)(=O)N2CCC(Cl)(Cl)CC2)c2n[nH]c(=O)o2)c1C` [Example 97, 4,4-dichloro-N-((1S,2R)-2-(6-fluoro-2,3-dimethylphenyl)-1-(5-oxo-4,5-dihydro-1,3,4-oxadiazol-2-yl)propyl)piperidine-1-sulfonamide], the IC50 is ≤ 0.1 µM.

With `Cc1ccc(F)c([C@H](C)[C@H](NS(=O)(=O)N2CCC(Cl)(Cl)CC2)c2n[nH]c(=O)o2)c1C` [Example 98, 4,4-dichloro-N-((1S,2S)-2-(6-fluoro-2,3-dimethylphenyl)-1-(5-oxo-4,5-dihydro-1,3,4-oxadiazol-2-yl)propyl)piperidine-1-sulfonamide], the IC50 was in the range of 1 to 10 µM.

Regarding `Cc1ccc(F)c(C(C)[C@H](NS(=O)(=O)N2CCC(Cl)(Cl)C(C)C2)c2n[nH]c(=O)o2)c1C` (stereo partly drawn) [Example 99, 4,4-dichloro-N-((1S)-2-(6-fluoro-2,3-dimethylphenyl)-1-(5-oxo-4,5-dihydro-1,3,4-oxadiazol-2-yl)propyl)-3-methylpiperidine-1-sulfonamide], the IC50 was 0.1 to 1 µM.

Consider `Cc1ccc(F)c([C@@H](C)[C@H](NS(=O)(=O)N2CCC(Br)CC2)c2n[nH]c(=O)o2)c1C` [Example 100, 4-bromo-N-((1S,2R)-2-(6-fluoro-2,3-dimethylphenyl)-1-(5-oxo-4,5-dihydro-1,3,4-oxadiazol-2-yl)propyl)piperidine-1-sulfonamide], for which the IC50 lay in the range of 0.1 to 1 µM.

Consider `Cc1ccc(F)c(C(C)[C@H](NS(=O)(=O)N2CCC(Cl)(C#N)CC2)c2n[nH]c(=O)o2)c1C` (stereo partly drawn) [Example 101, 4-chloro-4-cyano-N-((1S)-2-(6-fluoro-2,3-dimethylphenyl)-1-(5-oxo-4,5-dihydro-1,3,4-oxadiazol-2-yl)propyl)piperidine-1-sulfonamide], for which the IC50 is 0.1 to 1 µM.

`Cc1ccc(F)c([C@@H](C)[C@H](NS(=O)(=O)N2CC3C(C2)C3(C)C)c2n[nH]c(=O)o2)c1C` (stereo partly drawn) [Example 102, N-((1S,2R)-2-(6-fluoro-2,3-dimethylphenyl)-1-(5-oxo-4,5-dihydro-1,3,4-oxadiazol-2-yl)propyl)-6,6-dimethyl-3-azabicyclo[3.1.0]hexane-3-sulfonamide]: the IC50 is 0.1 to 1 µM.

Consider `Cc1ccc(F)c([C@H](C)[C@H](NS(=O)(=O)N2CC3C(C2)C3(C)C)c2n[nH]c(=O)o2)c1C` (stereo partly drawn) [Example 103, N-((1S,2S)-2-(6-fluoro-2,3-dimethylphenyl)-1-(5-oxo-4,5-dihydro-1,3,4-oxadiazol-2-yl)propyl)-6,6-dimethyl-3-azabicyclo[3.1.0]hexane-3-sulfonamide], for which the IC50 is 1 to 10 µM.

As for `Cc1ccc(F)c([C@H](C)[C@H](NS(=O)(=O)N2CC3CC3C2)c2n[nH]c(=O)o2)c1C` (stereo partly drawn) [Example 104, N-((1S,2S)-2-(6-fluoro-2,3-dimethylphenyl)-1-(5-oxo-4,5-dihydro-1,3,4-oxadiazol-2-yl)propyl)-3-azabicyclo[3.1.0]hexane-3-sulfonamide], the IC50 was 10 to 100 µM.

On to `Cc1ccc(F)c(C(C)[C@H](NS(=O)(=O)N2CC3C(C2)C3(F)F)c2n[nH]c(=O)o2)c1C` (stereo partly drawn) [Example 106, 6,6-difluoro-N-((1S)-2-(6-fluoro-2,3-dimethylphenyl)-1-(5-oxo-4,5-dihydro-1,3,4-oxadiazol-2-yl)propyl)-3-azabicyclo[3.1.0]hexane-3-sulfonamide], for which the IC50 fell in the range of 0.1 to 1 µM.

Consider `Cc1ccc(F)c([C@@H](C)[C@H](NS(=O)(=O)N2CCc3cc(Cl)ccc3C2)c2n[nH]c(=O)o2)c1C` [Example 107, 6-chloro-N-((1S,2R)-2-(6-fluoro-2,3-dimethylphenyl)-1-(5-oxo-4,5-dihydro-1,3,4-oxadiazol-2-yl)propyl)-3,4-dihydroisoquinoline-2(1H)-sulfonamide], for which the IC50 fell in the range of 0.1 to 1 µM.

As for `Cc1ccc(F)c([C@@H](C)[C@H](NS(=O)(=O)N2CCc3ccc(Cl)c(Cl)c3C2)c2n[nH]c(=O)o2)c1C` [Example 108, 7,8-dichloro-N-((1S,2R)-2-(6-fluoro-2,3-dimethylphenyl)-1-(5-oxo-4,5-dihydro-1,3,4-oxadiazol-2-yl)propyl)-3,4-dihydroisoquinoline-2(1H)-sulfonamide], the IC50 is 0.1 to 1 µM.

`Cc1ccc(F)c([C@@H](C)[C@H](NS(=O)(=O)N2CCCc3ccccc32)c2n[nH]c(=O)o2)c1C` [Example 109, N-((1S,2R)-2-(6-fluoro-2,3-dimethylphenyl)-1-(5-oxo-4,5-dihydro-1,3,4-oxadiazol-2-yl)propyl)-3,4-dihydroquinoline-1(2H)-sulfonamide]: the IC50 was 1 to 10 µM.

As for `Cc1ccc(F)c([C@@H](C)[C@H](NS(=O)(=O)N2C3CCC2CC(F)(F)C3)c2n[nH]c(=O)o2)c1C` [Example 110, 3,3-difluoro-N-((1S,2R)-2-(6-fluoro-2,3-dimethylphenyl)-1-(5-oxo-4,5-dihydro-1,3,4-oxadiazol-2-yl)propyl)-8-azabicyclo[3.2.1]octane-8-sulfonamide], the IC50 lay within 0.1 to 1 µM.

Regarding `Cc1ccc(F)c(C(C)[C@H](NS(=O)(=O)N2CCC(F)(F)CC2C)c2n[nH]c(=O)o2)c1C` (stereo partly drawn) [Example 111, 4,4-difluoro-N-((1S)-2-(6-fluoro-2,3-dimethylphenyl)-1-(5-oxo-4,5-dihydro-1,3,4-oxadiazol-2-yl)propyl)-2-methylpiperidine-1-sulfonamide], the IC50 was in the range of 0.1 to 1 µM.
